Type in all cases: cell-based, Human
One test deals with HT-29. Kind of test: MTT cell viability, HT-29. To be noted: for IC50: read-out: half-maximal inhibitory concentration (IC50) HT-29. The procedure:
(§1) The potential cytotoxicity of 24 candidate compounds was initially evaluated at a single concentration level (5 μM). Then a full dose-response curve was plotted for each compound against different colorectal cancer cell lines (HCT116 and HT-29) by MTT assay after 72 h treatments. 4-hydroxycoumarin, OSU-CG5, and OSU-CG12 were used as positive controls. […] Compounds 9b, 9c, 9f, 9i, 11b, and 11c were selected for further studies to determine the full dose-response survival curves using different concentrations (0.1–20 µM) against CRC cell lines and normal fibroblast cell line (F180) at different time points (Fig. 2A–2F and supplementary material Page S63 and S64).
(§2) Human colorectal carcinoma cell lines (HCT116) and (HT-29) were obtained from the European Collection of Cell Cultures (ECACC, UK). The cell lines were cultured in Roswell Park Memorial Institute medium (RPMI-1640, Sigma-Aldrich-St. Louis, MO, USA) supplemented with 10% fetal bovine serum (Sigma-Aldrich-St. Louis, MO, USA) and 1% penicillin/streptomycin (Sigma-Aldrich- Louis, MO, USA). F180 cell line (Human Normal Fibroblast), was kindly given by professor Ekkehard Dikomey (University Cancer Center, Hamburg University, Hamburg, Germany) and were cultured in Dulbecco’s Modified Eagle’s medium (DMEM, Sigma-Aldrich-St. Louis, MO, USA) supplemented with 10% fetal bovine serum (Sigma-Aldrich-St. Louis, MO, USA) and 1% penicillin/streptomycin (Sigma-Aldrich- Louis, MO, USA). All cell incubations were done at 37 °C in a humidified atmosphere of 5% CO2.
(§3) Cell viability was assessed using, 3-(4,5-dimethylthiazol-2-yl)-2,5-diphenyltetrazolium bromide (MTT) assay as previously described. In summary, cancer cell lines or F180 were seeded in complete medium at the density of 3 × 10^3/well and 5 × 10^3/well respectively in 96 well flat-bottom plates. After 24 h, cells were incubated with the candidate compounds at the indicated concentration for (24, 48 or 72 h). DMSO was used as vehicle control and 4-Hydroxycoumarin was purchased from (Sigma-Aldrich, St. Louis, MO, USA) and Cisplatin from Hospira UK Ltd. At the end of treatment, the media were aspirated from each well and incubated with 200 µL of MTT tetrazolium dye (Sigma-Aldrich, St. Louis, MO, USA) at a final concentration of 0.5 mg/ml for 2 h at 37 °C. The reduced MTT crystals were solubilized in 200 µl/well of DMSO and the absorbance was measured at 570 nm using a microplate reader (Thermo-Scientific, Vantaa, Finland).

Another test concerns HCT116. Kind of test: MTT cell viability, HCT116. Conditions: for IC50: read-out: half-maximal inhibitory concentration (IC50) HCT116. The procedure: as §1, §2, §3
For test [1], the system named is colorectal cancer cell lines, HCT116 and HT-29. Description: MTT cell viability, colorectal cancer cell lines (summary statements). To be noted: for anticancer activities in initial screening, in words: HT-29 and HCT116 cancer cell lines; for IC50: both cell lines, summary statement. The protocol:
as §1, §2, §3

The mark [2] stands for this setting: Homo sapiens, HT-29, 72 h, 72 h, MTT assay, mean ± SD (n = 6).
Where [3] appears, read: Homo sapiens, HCT-116, 72 h, 72 h, MTT assay, mean ± SD (n = 6).
The mark [4] stands for this setting: 72 h, MTT assay, mean ± SD (n = 6).

The text below walks through data of paper PMC7031302, “Design and synthesis of new energy restriction mimetic agents: Potent anti-tumor activities of hybrid motifs of aminothiazoles and coumarins” (Scientific Reports, 2020).

Read-outs that look alike come from different tables or passages of the source. Bounds are passed on as bounds.

With `N.N.[Cl][Pt][Cl]` [cisplatin, Cisplatin, reference compound], in the test with HT-29 (single compound, 72 h MTT), the “IC50 of cisplatin as a single compound, HT-29” value was determined as 1.81 µg/mL. The “IC50 of cisplatin as a single compound, HCT116” value in the test on HCT116 (single compound, 72 h MTT) came to 1.93 µg/mL.

Take `CCc1cc(=O)oc2cc(Nc3nc(-c4cccc([N+](=O)[O-])c4)cs3)ccc12` [Compound 10f, 4-Ethyl-7-(4-(3-nitrophenyl)thiazol-2-ylamino)-2H-chromen-2-one]: the figures for the IC50 in the test with HT-29 (setting [2]) and with HCT116 (setting [3]) were 4.41 ± 1.37 µM and 10.3 ± 3.15 µM, respectively.

For `CCCc1cc(=O)oc2cc(Nc3nc(-c4cccc([N+](=O)[O-])c4)cs3)ccc12` [Compound 11f, 7-(4-(3-Nitrophenyl)thiazol-2-ylamino)-4-propyl-2H-chromen-2-one], the IC50 is 3.66 ± 0.038 µM in the test on HT-29 (setting [2]) and over 30 µM with HCT116 (setting [3]).

As to `CCc1cc(=O)oc2cc(Nc3nc(-c4cccc(F)c4)cs3)ccc12` [Compound 10g, 4-Ethyl-7-(4-(3-fluorophenyl)thiazol-2-ylamino)-2H-chromen-2-one], the IC50 with HT-29 (setting [2]) is 2.34 ± 0.615 µM; with HCT116 (setting [3]), 4.08 ± 2.68 µM.

On to `COc1cccc(-c2csc(Nc3ccc4c(C)cc(=O)oc4c3)n2)c1` [Compound 9e, 7-(4-(3-Methoxyphenyl)thiazol-2-ylamino)-4-methyl-2H-chromen-2-one], for which the IC50 was found to be 3 ± 0.159 µM in the test on HT-29 (setting [2]) and 3.05 ± 0.14 µM in the test on HCT116 (setting [3]).

As for `CCCc1cc(=O)oc2cc(Nc3nc(-c4ccccc4)cs3)ccc12` [Compound 11a, 7-(4-Phenylthiazol-2-ylamino)-4-propyl-2H-chromen-2-one], the IC50 in the test with HT-29 (setting [2]) is 2.13 ± 0.3 µM; in the test on HCT116 (setting [3]), 6.76 ± 0.28 µM.

Turning to `COc1ccccc1-c1csc(Nc2ccc3c(C)cc(=O)oc3c2)n1` [Compound 9i, 7-(4-(2-Methoxyphenyl)thiazol-2-ylamino)-4-methyl-2H-chromen-2-one], the values for the IC50 (in the test on HT-29 (setting [2]); in the test on HCT116 (setting [3]); in test [1]) were 0.32 ± 0.017 µM, 0.32 ± 0.041 µM and under 0.6 µM, respectively. Besides, in test [1], the “anticancer activities in initial screening, in words” value (“anticancer activities” for short) is reported as “significant anticancer activities”.

Take `CCCc1cc(=O)oc2cc(Nc3nc(-c4cccc(F)c4)cs3)ccc12` [Compound 11g, 7-(4-(3-Fluorophenyl)thiazol-2-ylamino)-4-propyl-2H-chromen-2-one]: the values for the IC50 in the test on HT-29 (setting [2]) and in the test with HCT116 (setting [3]) were 1.8 ± 0.76 µM and 4.08 ± 1.36 µM, respectively.

For `Cc1cc(=O)oc2cc(Nc3nc(-c4ccccc4)cs3)ccc12` [Compound 9a, 4-Methyl-7-(4-phenylthiazol-2-ylamino)-2H-chromen-2-one], the IC50 in the test with HT-29 (setting [2]) was 1.54 ± 0.02 µM. The “anticancer activities” value in test [1] is reported as “significant anticancer activities”.

As to `CCCc1cc(=O)oc2cc(Nc3nc(-c4cccc(OC)c4)cs3)ccc12` [Compound 11e, 7-(4-(3-Methoxyphenyl)thiazol-2-ylamino)-4-propyl-2H-chromen-2-one], the IC50 worked out at 8.89 ± 0.813 µM in the test with HT-29 (setting [2]) and 28.6 ± 6.56 µM with HCT116 (setting [3]).

As to `CCCc1cc(=O)oc2cc(Nc3nc(-c4ccc(Cl)cc4)cs3)ccc12` [Compound 11c, 7-(4-(4-Chlorophenyl)thiazol-2-ylamino)-4-propyl-2H-chromen-2-one], the results for the IC50 (in the test with HT-29 (setting [2]); in the test on HCT116 (setting [3]); in test [1]) were 0.33 ± 0.032 µM, 0.34 ± 0.0009 µM and under 0.6 µM, respectively. The “anticancer activities” value in test [1] is reported as “significant anticancer activities”.

On to `Cc1cc(=O)oc2cc(Nc3nc(-c4ccc(Cl)cc4)cs3)ccc12` [Compound 9c, 7-(4-(4-Chlorophenyl)thiazol-2-ylamino)-4-methyl-2H-chromen-2-one], for which the IC50 in the test on HT-29 (setting [2]) is 0.37 ± 0.077 µM; in the test with HCT116 (setting [3]), 0.31 ± 0.014 µM; in test [1] it was under 0.6 µM. The “anticancer activities” value in test [1] is given as “significant anticancer activities”.

Regarding `O=c1cc(O)c2ccccc2o1` [4-Hydroxycoumarin, reference compound], the IC50 in the test with HT-29 (Homo sapiens, HT-29, 72 h) is over 200 µM; in the test on HCT116 (Homo sapiens, HCT-116, 72 h), over 200 µM.

In the case of `Cc1cc(=O)oc2cc(Nc3nc(-c4cccc(F)c4)cs3)ccc12` [Compound 9g, 7-(4-(3-Fluorophenyl)thiazol-2-ylamino)-4-methyl-2H-chromen-2-one], the results for the IC50 with HT-29 (setting [2]) and in the test on HCT116 (setting [3]) were 2.91 ± 1.25 µM and 3.5 ± 0.93 µM, respectively.

In the case of `CCCc1cc(=O)oc2cc(Nc3nc(-c4ccccc4[N+](=O)[O-])cs3)ccc12` [Compound 11h, 7-(4-(2-Nitrophenyl)thiazol-2-ylamino)-4-propyl-2H-chromen-2-one], the IC50 came out at 3.96 ± 0.014 µM with HT-29 (setting [2]) and 6.3 ± 0.605 µM in the test on HCT116 (setting [3]).

Consider `CCc1cc(=O)oc2cc(Nc3nc(-c4ccccc4OC)cs3)ccc12` [Compound 10i, 4-Ethyl-7-(4-(2-methoxyphenyl)thiazol-2-ylamino)-2H-chromen-2-one], for which the results for the IC50 with HT-29 (setting [2]) and with HCT116 (setting [3]) were 3.96 ± 1.65 µM and 13.5 ± 0.2 µM, respectively.

On to `CCc1cc(=O)oc2cc(Nc3nc(-c4ccccc4)cs3)ccc12` [Compound 10a, 4-Ethyl-7-(4-phenylthiazol-2-ylamino)-2H-chromen-2-one], for which the IC50 in the test on HT-29 (setting [2]) and with HCT116 (setting [3]) was over 30 µM throughout.

`Cc1cc(=O)oc2cc(Nc3nc(-c4ccccc4[N+](=O)[O-])cs3)ccc12` [Compound 9h, 4-Methyl-7-(4-(2-nitrophenyl)thiazol-2-ylamino)-2H-chromen-2-one]: the IC50 with HT-29 (setting [2]) and in the test with HCT116 (setting [3]) was over 30 µM each time.

Regarding `CCc1cc(=O)oc2cc(Nc3nc(-c4cccc(OC)c4)cs3)ccc12` [Compound 10e, 4-Ethyl-7-(4-(3-methoxyphenyl)thiazol-2-ylamino)-2H-chromen-2-one], the IC50 is 13.1 ± 1.39 µM in the test with HT-29 (setting [2]) and over 30 µM in the test with HCT116 (setting [3]).

`CCCc1cc(=O)oc2cc(Nc3nc(-c4ccc(Br)cc4)cs3)ccc12` [Compound 11b, 7-(4-(4-Bromophenyl)thiazol-2-ylamino)-4-propyl-2H-chromen-2-one]: the IC50 in the test with HT-29 (setting [2]) is 0.25 ± 0.004 µM; in the test on HCT116 (setting [3]) it was 0.26 ± 0.016 µM; in test [1], under 0.6 µM. In test [1], the “anticancer activities” value was “significant anticancer activities”.

As for `CCC(CC)CN1C(=O)S/C(=C\c2ccc(O)c(C(F)(F)F)c2)C1=O` [OSU-CG5, reference compound], the IC50 in the test with HT-29 (setting [4]) was 10.1 ± 0.373 µM; with HCT116 (setting [4]), 2.85 ± 0.111 µM.

As to `CCc1cc(=O)oc2cc(Nc3nc(-c4ccccc4[N+](=O)[O-])cs3)ccc12` [Compound 10h, 4-Ethyl-7-(4-(2-nitrophenyl)thiazol-2-ylamino)-2H-chromen-2-one], the IC50 in the test with HT-29 (setting [2]) is 1.68 ± 0.47 µM; with HCT116 (setting [3]), 4.73 ± 1.93 µM.

For `CCOc1ccc(-c2csc(Nc3ccc4c(C)cc(=O)oc4c3)n2)cc1` [Compound 9d, 7-(4-(4-Ethoxyphenyl)thiazol-2-ylamino)-4-methyl-2H-chromen-2-one], the IC50 stood at 3.03 ± 0.0205 µM in the test with HT-29 (setting [2]) and 3.21 ± 0.88 µM in the test on HCT116 (setting [3]).

Regarding `CCc1cc(=O)oc2cc(Nc3nc(-c4ccc(Br)cc4)cs3)ccc12` [Compound 10b, 7-(4-(4-Bromophenyl)thiazol-2-ylamino)-4-ethyl-2H-chromen-2-one], the IC50 with HT-29 (setting [2]) came to 2.97 ± 0.2 µM; in the test with HCT116 (setting [3]), 3.03 ± 2.25 µM.

In the case of `CCc1cc(=O)oc2cc(Nc3nc(-c4ccc(Cl)cc4)cs3)ccc12` [Compound 10c, 7-(4-(4-Chlorophenyl)thiazol-2-ylamino)-4-ethyl-2H-chromen-2-one], the IC50 was 1.3 ± 0.127 µM in the test on HT-29 (setting [2]) and 3.54 ± 0.53 µM in the test on HCT116 (setting [3]).
